Test system: 415267-285-R-J2-PDC complex spheroid viability
Assay: Anticancer human tumor 415267-285-R-J2-PDC patient-derived breast carcinoma cell line growth inhibition [POLQ]
Settings: for IC50: curve of first compound; for viability, T/C: stronger effect = lower value
Summary of the method: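 Three-cell-type spheroids modelling solid tumor plus stroma served as the readout system; POL inhibitors were tested individually and in combination, concentration ranges set by clinical Cmax where known.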

[1] = second compound 0.0316 µM, first compound 0.0316 µM
[2] = second compound 0.0316 µM, first compound 0.1 µM
[3] = second compound 0.0316 µM, first compound 0.316 µM
[4] = second compound 0.0316 µM, first compound 1 µM
[5] = second compound 0.1 µM, first compound 0.0316 µM
[6] = second compound 0.1 µM, first compound 0.1 µM
[7] = second compound 0.1 µM, first compound 0.316 µM
[8] = second compound 0.1 µM, first compound 1 µM
[9] = second compound 0.316 µM, first compound 0.0316 µM
[10] = second compound 0.316 µM, first compound 0.1 µM
[11] = second compound 0.316 µM, first compound 0.316 µM
[12] = second compound 0.316 µM, first compound 1 µM
[13] = second compound 1 µM, first compound 0.0316 µM
[14] = second compound 1 µM, first compound 0.1 µM
[15] = second compound 1 µM, first compound 0.316 µM
[16] = second compound 1 µM, first compound 1 µM
[17] = second compound 3.16 µM, first compound 0.0316 µM
[18] = second compound 3.16 µM, first compound 0.1 µM
[19] = second compound 3.16 µM, first compound 0.316 µM
[20] = second compound 3.16 µM, first compound 1 µM
[21] = second compound 10 µM, first compound 0.0316 µM
[22] = second compound 10 µM, first compound 0.1 µM
[23] = second compound 10 µM, first compound 0.316 µM
[24] = second compound 10 µM, first compound 1 µM
[25] = second compound 0.0316 µM, first compound 3.16 µM
[26] = second compound 0.0316 µM, first compound 10 µM
[27] = second compound 0.1 µM, first compound 3.16 µM
[28] = second compound 0.1 µM, first compound 10 µM
[29] = second compound 0.316 µM, first compound 3.16 µM
[30] = second compound 0.316 µM, first compound 10 µM
[31] = second compound 1 µM, first compound 3.16 µM
[32] = second compound 1 µM, first compound 10 µM
[33] = second compound 3.16 µM, first compound 3.16 µM
[34] = second compound 3.16 µM, first compound 10 µM
[35] = second compound 10 µM, first compound 3.16 µM
[36] = second compound 10 µM, first compound 10 µM
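Note: spheroids exposed to compounds for one week before readout.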
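Throughout, for viability, T/C: luminescence used as stand-in measure of viable cells; 100% = DMSO vehicle control viability.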

C=CCn1c(=O)c2cnc(Nc3ccc(N4CCN(C)CC4)cc3)nc2n1-c1cccc(C(C)(C)O)n1 + Cc1cccc(N(C)C(=O)C2C(O)CCN2c2nc(C)cc(C(F)(F)F)c2C#N)c1 was tested, and the IC50 (second compound 0.0316 µM) was 444 nM, the IC50 (second compound 0.1 µM) was 475 nM and the IC50 (second compound 0.316 µM) was 460 nM. For the same compound, the IC50 (second compound 1 µM) was 486 nM, the IC50 (second compound 3.16 µM) was 452 nM and the IC50 (second compound 10 µM) was 425 nM. For the same compound, the viability, T/C (second compound 0.0316 µM, first compound 0.00316 µM) was 103%, the viability, T/C (second compound 0.0316 µM, first compound 0.01 µM) was 102% and the viability, T/C [1] was 104%. It also gave a viability, T/C [2] of 116%, a viability, T/C [3] of 67.6% and a viability, T/C [4] of 8%. It also gave a viability, T/C (second compound 0.1 µM, first compound 0.00316 µM) of 96.6%, a viability, T/C (second compound 0.1 µM, first compound 0.01 µM) of 102% and a viability, T/C [5] of 106%. For the same compound, the viability, T/C [6] was 112%, the viability, T/C [7] was 73.6% and the viability, T/C [8] was 6.74%. The viability, T/C (second compound 0.316 µM, first compound 0.00316 µM) was 103%, the viability, T/C (second compound 0.316 µM, first compound 0.01 µM) was 105% and the viability, T/C [9] was 109%. For the same compound, the viability, T/C [10] was 94.5%, the viability, T/C [11] was 71% and the viability, T/C [12] was 7.48%. For the same compound, the viability, T/C (second compound 1 µM, first compound 0.00316 µM) was 103%, the viability, T/C (second compound 1 µM, first compound 0.01 µM) was 103% and the viability, T/C [13] was 107%. For the same compound, the viability, T/C [14] was 108%, the viability, T/C [15] was 76.1% and the viability, T/C [16] was 6.25%. It also gave a viability, T/C (second compound 3.16 µM, first compound 0.00316 µM) of 102%, a viability, T/C (second compound 3.16 µM, first compound 0.01 µM) of 109% and a viability, T/C [17] of 108%. For the same compound, the viability, T/C [18] was 123%, the viability, T/C [19] was 69% and the viability, T/C [20] was 7.86%. For the same compound, the viability, T/C (second compound 10 µM, first compound 0.00316 µM) was 108%, the viability, T/C (second compound 10 µM, first compound 0.01 µM) was 106% and the viability, T/C [21] was 122%. The viability, T/C [22] was 114%, the viability, T/C [23] was 64.1% and the viability, T/C [24] was 9.37%.

With CCCS(=O)(=O)Nc1ccc(F)c(C(=O)c2c[nH]c3ncc(-c4ccc(Cl)cc4)cc23)c1F + COC1C(OC(N)=O)C(O)C(Oc2ccc3c(O)c(NC(=O)c4ccc(O)c(CC=C(C)C)c4)c(=O)oc3c2C)OC1(C)C the IC50 (second compound 0.0316 µM) was > 10000 nM, the IC50 (second compound 0.1 µM) was > 10000 nM and the IC50 (second compound 0.316 µM) was > 10000 nM. For the same compound, the IC50 (second compound 1 µM) was > 10000 nM, the IC50 (second compound 3.16 µM) was > 10000 nM and the IC50 (second compound 10 µM) was > 10000 nM. For the same compound, the viability, T/C [1] was 123%, the viability, T/C [2] was 102% and the viability, T/C [3] was 94.5%. It also gave a viability, T/C [4] of 89%, a viability, T/C [25] of 110% and a viability, T/C [26] of 66.4%. For the same compound, the viability, T/C [5] was 103%, the viability, T/C [6] was 100% and the viability, T/C [7] was 97.3%. The viability, T/C [8] was 101%, the viability, T/C [27] was 111% and the viability, T/C [28] was 66.5%. The viability, T/C [9] was 101%, the viability, T/C [10] was 105% and the viability, T/C [11] was 99%. For the same compound, the viability, T/C [12] was 104%, the viability, T/C [29] was 92.4% and the viability, T/C [30] was 70.9%. The viability, T/C [13] was 103%, the viability, T/C [14] was 106% and the viability, T/C [15] was 94%. The viability, T/C [16] was 94.8%, the viability, T/C [31] was 92.6% and the viability, T/C [32] was 64.7%. It also gave a viability, T/C [17] of 109%, a viability, T/C [18] of 96.6% and a viability, T/C [19] of 90.2%. For the same compound, the viability, T/C [20] was 95.2%, the viability, T/C [33] was 101% and the viability, T/C [34] was 60.5%. It also gave a viability, T/C [21] of 116%, a viability, T/C [22] of 106% and a viability, T/C [23] of 97.8%. The viability, T/C [24] was 91.4%, the viability, T/C [35] was 93.2% and the viability, T/C [36] was 88.4%.

For CC1COCCN1c1cc(-c2ccnn2C)c2ccnc(-c3ccn[nH]3)c2n1 (stereo unspecified) + Cc1cccc(N(C)C(=O)C2C(O)CCN2c2nc(C)cc(C(F)(F)F)c2C#N)c1, the IC50 (second compound 0.0316 µM) was < 31.6 nM, the IC50 (second compound 0.1 µM) was < 31.6 nM and the IC50 (second compound 0.316 µM) was < 31.6 nM. It also gave an IC50 (second compound 1 µM) of 33.9 nM, an IC50 (second compound 3.16 µM) of 33.6 nM and an IC50 (second compound 10 µM) of 35.9 nM. It also gave a viability, T/C [1] of 44%, a viability, T/C [2] of 17.2% and a viability, T/C [3] of 6.77%. It also gave a viability, T/C [4] of 4.72%, a viability, T/C [25] of 4.84% and a viability, T/C [26] of 4.51%. For the same compound, the viability, T/C [5] was 41.2%, the viability, T/C [6] was 11.3% and the viability, T/C [7] was 6.11%. For the same compound, the viability, T/C [8] was 4.5%, the viability, T/C [27] was 4.14% and the viability, T/C [28] was 5.26%. For the same compound, the viability, T/C [9] was 47.2%, the viability, T/C [10] was 13.3% and the viability, T/C [11] was 5.28%. For the same compound, the viability, T/C [12] was 4.19%, the viability, T/C [29] was 4.21% and the viability, T/C [30] was 4.67%. It also gave a viability, T/C [13] of 52.6%, a viability, T/C [14] of 10.9% and a viability, T/C [15] of 6.08%. For the same compound, the viability, T/C [16] was 4.95%, the viability, T/C [31] was 4.35% and the viability, T/C [32] was 4.81%. It also gave a viability, T/C [17] of 52.2%, a viability, T/C [18] of 10.7% and a viability, T/C [19] of 5.26%. It also gave a viability, T/C [20] of 4.41%, a viability, T/C [33] of 4.33% and a viability, T/C [34] of 4.61%. It also gave a viability, T/C [21] of 53.4%, a viability, T/C [22] of 22.9% and a viability, T/C [23] of 5.93%. It also gave a viability, T/C [24] of 4.73%, a viability, T/C [35] of 5.68% and a viability, T/C [36] of 4.55%.

Reference: PubChem BioAssay AID1963847 (Molecular Pharmacology Branch, DTP, NCI, 2024)
